Measured values as given in article PMC5453931, “Cathelicidin-trypsin inhibitor loop conjugate represents a promising antibiotic candidate with protease stability” (Scientific Reports, 2017).
Where a SMILES comes first, the peptide text is derived from it. Bridges are numbered along the chain shown (N, C = ends).

Tests used:
[1] = tested on: established C. albicans biofilm; assay: Biofilm disruption assay, established biofilm (XTT, PI/SYBR Green I); type: cell-based
Protocol: TIH3F that has the best antifungal activity among the four peptides was chosen to examine the effect on the C. albicans biofilm formation and the established biofilm using previously described method with minor modifications. In the biofilm inhibition assay, after the incubation at 35 °C, C. Albicans was diluted to 1 × 10^6 CFU/mL in RPMI-1640 medium. Then 2 mL culture was added to each well of 6-well plates with coverslips at the bottom, and incubated at 35 °C in a humid chamber for 3 h. Non-adherent cells were then washed away by PBS, and series concentrations of TIH3F (0, 1, 2, 4 μg/mL) were added into the plate, with amphotericin B as control. The formation of the biofilm was determined by the XTT Cell Proliferation and Cytotoxicity Kit (KeyGEN BioTECH, Nanjing, China) after 36-h incubation. In the biofilm disruption assay, the biofilm was preformed as described above but with a longer incubation time up to 72 h. Then TIH3F and amphotericin B of series concentrations (0, 2.5, 5, 10, 25, 50 μg/mL) was added after non-adherent cells were washed out. The measurement of remaining biofilm was then determined. In order to further confirm the antifungal effect of TIH3F against C. albicans encased in biofilms, the established biofilm was treated with TIH3F (0, 5, 50 μg/mL), washed three times with PBS, and finally stained with 1 mL 1000-fold diluted PI/SYBR Green I at 30 °C in the dark for 20 min. After washing with PBS, the plate was immediately photographed with fluorescence microscope.

[2] = 20% fresh human serum, 37 °C, colonies surviving 1 × MIC, Fig. 3B
[3] = tested on: E. coli; assay: pH stability of antimicrobial activity; type: physicochemical; settings: HCl or NaOH solution, 2 mg/mL, 37 °C, 24 h, then 1 × MIC for 2 h, CFU; Fig. 3C
Protocol: Peptide was dissolved in HCl solution or NaOH solution to a final concentration of 2 mg/mL with pH value ranging from 1.0 to 11.0, and incubated at 37 °C for 24 h[64]. […] The diluted aliquots were seeded at MH agar plates and the CFU were scored after 24 h incubation at 37 °C. The number of CFU grown out of MH broth without peptide was served as control.

[4] = tested on: E. coli ATCC25922; assay: Thermal stability of antimicrobial activity; type: physicochemical; settings: 2 mg/mL in water, up to 96 h, E. coli ATCC25922, 1 × MIC, Fig. 3D
Protocol: Thermal stability of Hc-3 and hybrid peptides was examined according to the method described in our previous work[31]. Peptide was dissolved in sterile deionized water to a final concentration of 2 mg/mL, and incubated at 37 °C for 0–96 h. At each time point, the bacteria colonies of E. coli ATCC25922 survived 1 × MIC were measured.

[5] = tested on: E. coli ATCC25922; assay: Salt stability of antimicrobial activity; type: cell-based; settings: 1 × MIC, Fig. 3A
Protocol: To determine the effect of salt on the antimicrobial activity of the parental and hybrid peptides, the bacteria colonies survived 1 × MIC of peptide in the presence of salt were counted. Briefly, E. coli ATCC25922 were diluted into decent concentration and mixed with each kind of peptide solution of 1 × MIC supplemented with NaCl (0, 50, 100, 150, 200 and 400 mM), respectively. […] The salt stability of the peptides was assessed by the number of colonies.

[6] = tested on: trypsin or proteinase K; settings: peptide:protease 300/1 mol/mol, 30 min, 37 °C, then 1 × MIC 2 h with E. coli, S. aureus, C. albicans; colony counting; Fig. 3E
[7] = target: trypsin; assay: Trypsin inhibition assay (NBLAN hydrolysis, Dixon method); type: biochemical; settings: 50 mM Tris–HCl pH 7.8, trypsin 0.1 mg/mL, 5 min pre-incubation at 37 °C, substrate NBLAN 48, 96, 192 μg/mL, 405 nm
In short: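 Trypsin (0.1 mg/mL final) pre-incubated 5 min at 37 °C with hybrid peptide at […] final, in 50 mM Tris–HCl, pH 7.8, at room temperature. Reaction started with NBLAN at 48, 96 or 192 μg/mL final; p-nitroaniline monitored continuously at 405 nm. Ki determined by the Dixon method.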

[8] = tested on: trypsin; assay: Protease stability, RP-HPLC analysis of degradation; type: in vitro ADME
Protocol: To further examine the stability of TIH3F incubated with enzymes (trypsin and protease K) over time, the LC analysis of peptide degradation over a series of time spans (0, 6, 12, 24 h) was performed. TIH3F and protease solution were prepared in 0.1 M NH4HCO3 buffer (pH 8.2) to final molar ratio of 300:1, and incubated at 37 °C for 6, 12, and 24 h, respectively. Then 150 μL aliquots were taken at given time intervals, diluted with 150 μL of water/acetonitrile (60/40 v/v) containing 2% TFA, and analyzed by RP-HPLC (Thermo Scientific Syncronis C18 column, 250 mm × 4.6 mm, 5 μm), eluted with acetonitrile/water (containing 0.1% TFA) mixture of linear gradient concentration.

[9] = tested on: Raw264.7 cells; assay: LPS-induced iNOS, cytokine and chemokine transcription (q-PCR); type: cell-based, Murine; settings: LPS 100 ng/mL, 6 h, q-PCR normalized to GAPDH; Fig. 6
Protocol: Murine macrophage Raw264.7 cells (3 × 10^5/well) were treated with series concentrations of hybrid peptides and LPS (100 ng/mL) for 6 h. Total RNA was isolated using RNAiso Plus kit (Takara) and synthesized into cDNA with PrimeScript Reverse Transcriptase (Takara). The cDNA was assessed by q-PCR using SYBR green master mix kit (Takara) on a Realplex Mastercycler (Eppendorf, Germany). Gene expression was calculated after being normalized to those of GAPDH levels by Δ Δ Ct method27. The accuracy of the amplification reactions was achieved by melt curve analysis.

SMILES: CC[C@H](C)[C@@H]1NC(=O)[C@H](CO)NC(=O)[C@H](CCCCN)NC(=O)[C@H]([C@@H](C)O)NC(=O)[C@H](Cc2c[nH]c3ccccc23)NC(=O)[C@@H](N)CSSC[C@@H](C(=O)N[C@@H](CCCCN)C(=O)N[C@@H](Cc2ccccc2)C(=O)N[C@@H](Cc2ccccc2)C(=O)N[C@@H](CCCCN)C(=O)N[C@@H](CCCNC(=N)N)C(=O)N[C@@H](Cc2ccccc2)C(=O)N[C@@H](Cc2ccccc2)C(=O)N[C@@H](CCCCN)C(=O)N[C@@H](CO)C(=O)N[C@@H](Cc2ccccc2)C(=O)N[C@@H](CCCNC(=N)N)C(=O)N[C@@H](CCCNC(=N)N)C(=O)N[C@@H](C)C(=O)N[C@@H](Cc2ccccc2)C(=O)N[C@@H](CCCCN)C(=O)N[C@@H](CCCCN)C(=O)N[C@@H](Cc2ccccc2)C(N)=O)NC(=O)[C@@H]2CCCN2C(=O)[C@H](CCCCN)NC(=O)[C@@H]2CCCN2C(=O)[C@@H]2CCCN2C1=O [TIH3F] (H-CWTKSIPPKPCKFFKRFFKSFRRAFKKF-NH2; disulfide 1-11)
- damage of established C. albicans biofilm ([1]; 5 μg/mL, biofilm preformed 72 h, XTT metabolic activity, Fig. 2B): 50%
- killing of C. albicans in preformed biofilm ([1]; 50 μg/mL, PI/SYBR Green I staining, fluorescence microscopy, Fig. 2C): destroy all of the cell membranes
- kill (%) after incubation with human serum ([2]; 6 h): 75%
- kill (%) / antimicrobial activity kept after incubation with human serum ([2]; 36 h): 65%
- antimicrobial activity against E. coli after incubation at pH 1.0–11.0 [3]: unaffected
- antimicrobial activity after incubation at 37 °C [4]: maintained its potent antimicrobial activity
- antimicrobial activity (kill %) in presence of salt ([5]; 50 mM NaCl, colony counting): not affected
- kill (%) in presence of salt ([5]; NaCl increased from 100 mM up to 200 mM): declined by half
- killing effect in presence of salt ([5]; NaCl raised from 100 mM to 400 mM): decreased by half
- antimicrobial activity after treatment with trypsin or proteinase K [6]: negligible antimicrobial activity decrease
- Ki [7]: 1500 nM
- RP-HPLC absorbance of the peptide before trypsin incubation ([8]; pure peptide, 0 h, C18 RP-HPLC, Fig. 4E): 600 mAU
- degradation by trypsin ([8]; trypsin, 300:1, 0.1 M NH4HCO3 pH 8.2, 37 °C, 6 h, RP-HPLC, Fig. 4): a little degradation
- intact peptide remaining after trypsin incubation ([8]; trypsin, 300:1, 0.1 M NH4HCO3 pH 8.2, 37 °C, up to 24 hours, RP-HPLC, Fig. 4): remained half
- RP-HPLC absorbance of the peptide after trypsin incubation ([8]; trypsin, peptide:protease 300:1, 0.1 M NH4HCO3 pH 8.2, 37 °C, 6 h, C18 RP-HPLC, Fig. 4F): 500 mAU
- LPS-induced mRNA of iNOS, TNF-α, IL-1β, IL-6, MCP-1 [9]: strongest inhibitory effect
